Source: PubChem BioAssay (NCI)
Several values for one entry are separate records, joined by “and”; a condition that tells them apart may be missing. Equal entries are not always repeated.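 Protocol summary: plate cells (96-well), add compound at 5 concentrations, incubate 48 h, interpolate endpoints linearly. GI50 = concentration required for 50% inhibition of growth. TGI: concentration producing complete growth inhibition.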

Assays:
Experiment in all cases: growth of human tumour cells (NCI), 48 h
A549 NSCLC = test system: A549 NSCLC
ACHN renal = test system: ACHN renal
HOP-92 NSCLC = test system: HOP-92 NSCLC
LXFL 529 NSCLC = test system: LXFL 529 NSCLC
OVCAR-3 ovarian = test system: OVCAR-3 ovarian
SK-MEL-5 melanoma = test system: SK-MEL-5 melanoma
SNB-19 CNS = test system: SNB-19 CNS
TK-10 renal = test system: TK-10 renal
A498 renal = test system: A498 renal
DU-145 prostate = test system: DU-145 prostate

SMILES	TGI (A549 NSCLC) [µM]	TGI (ACHN renal)	TGI (HOP-92 NSCLC) [µM]	TGI (LXFL 529 NSCLC) [µM]	TGI (OVCAR-3 ovarian)	TGI (SK-MEL-5 melanoma) [µM]	TGI (SNB-19 CNS) [µM]	TGI (TK-10 renal) [µM]	TGI (A498 renal)	TGI (DU-145 prostate)	GI50 (A498 renal)	GI50 (OVCAR-3 ovarian)	GI50 (SNB-19 CNS)	GI50 (TK-10 renal)	GI50 (A549 NSCLC) [µM]	GI50 (DU-145 prostate) [µM]	GI50 (HOP-92 NSCLC) [µM]	GI50 (SK-MEL-5 melanoma) [µM]
O=CC1=CCC2c3[nH]c4ccccc4c3CCN2C1 (stereo not given)	> 396	> 396 µM	> 396	137	314 µM	> 396	> 396	> 396										
c1cc2c(cc1[C@@H]1OC[C@@H]3[C@H]1CO[C@H]3c1ccc3c(c1)OCO3)OCO2	> 100	> 100 µM	> 100		> 100 µM	33.6	> 100	93.8	> 100 µM	> 100 µM								
COc1ccc(CC[N+]2(C)COc3cc4oc(=O)cc(C)c4cc3C2)cc1OC (stereo not given)	> 100	> 100 µM	> 100		> 100 µM	> 100	> 100	> 100	> 100 µM	> 100 µM								
CC(C)[C@@H]1NC(=O)[C@@H]2N=C(O[C@H]2C)[C@H](C(C)C)NC(=O)C2N=C1O[C@H]2C	> 100	> 100 µM	> 100		> 100 µM	> 100	> 100	> 100	> 100 µM	> 100 µM								
CC(=O)O[C@H]1C(=O)[C@@]2(C)[C@H]([C@H](OC(=O)c3ccco3)[C@]3(O)C[C@H](OC(=O)[C@H](O)[C@@H](NC(=O)c4ccccc4)c4ccccc4)C(C)=C1C3(C)C)[C@]1(OC(C)=O)CO[C@@H]1C[C@@H]2O	> 25	> 25 µM	> 25		0.225 µM		> 25	> 25	> 25 µM	> 25 µM								
CCOC(=O)c1cn(CC)c2ccc3c(c2c1=O)S(=O)(=O)C=C3	> 100	> 100 µM	> 100		> 100 µM	> 100	> 100	> 100	> 100 µM	> 100 µM								
CCOC(=O)c1csc(NC(=O)C(C)N2CCOCC2)n1 (stereo not given)	> 100	> 100 µM	> 100		> 100 µM	> 100	> 100	> 100	> 100 µM	> 100 µM								
CCOC(=O)C1C(c2ccc(OC)cc2)c2c([nH]n(-c3ccccc3)c2=O)CC1(C)O (stereo not given)	> 100	> 100 µM	> 100		> 100 µM	> 100	> 100	> 100	> 100 µM	> 100 µM								
Cc1ccc(-n2cc(-c3ccc(Cl)cc3)c3c(=N)n(N)cnc32)cc1	29	29.7 µM	21.6		26.5 µM	20.1	24.4	28.7	29.5 µM	34.5 µM								
Cn1c(NC(=O)NC23CC4CC(CC(C4)C2)C3)nc2ccccc21	> 100	> 100 µM	90.6	> 100	> 100 µM	> 100	> 100	> 100										
Cc1cc2c(cc1Cl)Sc1n[nH]c(=O)n1S2(=O)=O	> 100	> 100 µM	> 100		> 100 µM	> 100	> 100	> 100	90.8 µM	> 100 µM								
Cc1cc2occ(S(=O)(=O)NC(=O)Nc3ccc(Cl)cc3)c(=O)c2c(=O)o1	> 100	> 100 µM	> 100		> 100 µM	> 100	> 100	> 100	> 100 µM	> 100 µM								
Cc1ncc(CSC(=N)N)n1Cc1ccccc1	> 100	> 100 µM	> 100		> 100 µM	> 100	> 100	> 100	> 100 µM	> 100 µM								
COC(=O)[C@@H]1COC(=O)N1	> 100	> 100 µM	> 100		> 100 µM	> 100	> 100	> 100	> 100 µM	> 100 µM								
Cc1ccc2nc(C(=O)O)c(=O)[nH]c2c1	> 100	> 100 µM	> 100		> 100 µM	> 100	> 100	> 100	> 100 µM	> 100 µM								
O=C1C=C/C(=C/[C@H]2SSC=C[C@]23C=CC(=O)C3)C1	63.2	55.5 µM	61.5		85.6 µM	38.9	> 100	> 64.7	38.3 µM	47.3 µM								
O=C(NCc1ccccc1Cl)c1c(O)c2ccccc2[nH]c1=O	> 100		58.7		> 100 µM	> 100	> 100	> 100	30.4 µM	> 100 µM								
O=C1c2ccccc2C(=O)c2sc(Nc3cc(Cl)ccc3Cl)nc21	42.2	19 µM	36.2		4.07 µM	2.98	37.9	29.4	41.9 µM	24.6 µM								
C[n+]1c(-c2ccc(/C=N/NC(=O)C(=O)N/N=C/c3ccc(-c4cn5ccccc5[n+]4C)cc3)cc2)cn2ccccc21	> 100	> 100 µM	> 100		> 100 µM	> 100	> 100	> 100	> 100 µM	> 100 µM								
S=c1[nH]n2c(COc3cc(Cl)c(OCc4nnc5sc(=S)[nH]n45)cc3Cl)nnc2s1	> 100	> 100 µM	> 100		> 100 µM	> 100	> 100	> 100	> 100 µM	> 100 µM								
C=CCOC(=O)N1c2ccc(O)cc2[C@@]23O[C@@]24[C@@H]1C#C/C=C\C#C[C@]3(O)C(=O)C[C@@H]4C	> 100	> 100 µM	> 100			> 100	> 100	> 100	> 100 µM	> 100 µM								
Cc1cc(C)n2c(nc3ccccc32)c1C#N	> 100	> 100 µM	79.8		> 100 µM	> 100	> 100	> 100	> 100 µM	> 100 µM								

SMILES	TGI (A549 NSCLC) [µM]	TGI (ACHN renal)	TGI (HOP-92 NSCLC) [µM]	TGI (LXFL 529 NSCLC) [µM]	TGI (OVCAR-3 ovarian)	TGI (SK-MEL-5 melanoma) [µM]	TGI (SNB-19 CNS) [µM]	TGI (TK-10 renal) [µM]	TGI (A498 renal)	TGI (DU-145 prostate)	GI50 (A498 renal)	GI50 (OVCAR-3 ovarian)	GI50 (SNB-19 CNS)	GI50 (TK-10 renal)	GI50 (A549 NSCLC) [µM]	GI50 (DU-145 prostate) [µM]	GI50 (HOP-92 NSCLC) [µM]	GI50 (SK-MEL-5 melanoma) [µM]
Cc1cc(=O)n2nc(CSc3nnc(Sc4cc(O)ccc4O)s3)sc2n1	> 100	> 100 µM	> 100		> 100 µM	> 100	> 100	> 100	> 100 µM	> 100 µM								
COc1cccc(CCCNC(=O)Cc2ccccc2CO)c1	> 100	> 100 µM	> 100		> 100 µM	> 100	> 100	> 100	> 100 µM	> 100 µM								
CC(NNC(=O)c1ccncc1)c1ccc(Cl)cc1Cl (stereo not given)	> 100	> 100 µM	> 100		> 100 µM	> 100	> 100	> 100	> 100 µM	> 100 µM								
CC(C)(CN1CCCCC1)C(=O)CC(SCCS(=O)(=O)O)c1ccc(Cl)cc1 (stereo not given)	23.5	17.1 µM	7.13		17.9 µM	20.8	28.9	18.9	13.5 µM	21.7 µM								
COc1ccc(/C=N/NC(=S)Nc2cc(C)ccc2OC)cc1	> 100	> 100 µM	72		> 100 µM	30	> 100		> 100 µM	> 100 µM								
COc1cccc(N=NN2CCCC2)c1		> 100 µM	> 100		> 100 µM	> 100	> 100	> 100	> 100 µM	> 100 µM								
CCCCCCCCCCCCC1N=C(N)NC2(CCCO2)C1C(=O)OC (stereo not given)	30.9	25.2 µM	17.2		13.2 µM	23.7	9.92	15.5	47.7 µM	33.2 µM								
CCc1cc2c(c3c1CCCC3=O)CC1(C2)Cc2cc(CC)c3c(c2C1)C(=O)CCC3	> 100	> 100 µM	> 100		> 100 µM	> 100	> 100	> 100	> 100 µM	> 100 µM								
Cn1c(=O)c2c(nc(N/N=C3/SCC(=O)N3Cc3ccccc3)n2C)n(C)c1=O	> 100	> 100 µM	78.7		90.4 µM	> 100	> 100	> 100	> 100 µM	> 100 µM								
C/C(Nc1ccc(Cl)cc1)=C1/CCOC1=O	> 49	> 100 µM	> 100		> 100 µM		> 100	> 100	> 100 µM	> 100 µM								
CC[C@@]1(O)C(=O)OCc2c1cc1n(c2=O)Cc2c-1nc1ccccc1c2C=Nc1ccccc1N[C@@H]1c2cc3c(cc2[C@@H](c2cc(OC)c(O)c(OC)c2)[C@H]2C(=O)OC[C@@H]21)OCO3	7.62	0.961 µM and 0.171 µM	> 100		10.9 µM and 1.81 µM		> 52.5		1.79 µM and 0.68 µM	0.0979 µM and 0.0432 µM	0.325 µM and 0.142 µM	1.46 µM and 0.337 µM	0.0869 µM and 0.0336 µM	3.49 µM and 0.549 µM				
Cc1ccc(NC(=O)C(=O)Cc2cccc[n+]2[O-])cc1C	> 100	> 100 µM		> 100	> 100 µM	> 100	> 100	> 100	> 100 µM									
CSc1nc(C)c2c(n1)N(c1ccc(Cl)cc1)CC2	> 100	> 100 µM	> 100		> 100 µM	> 100	> 100	> 100	> 100 µM	> 100 µM								
CC(=O)C(C(C)=O)[C@H]1OC(C)(C)O[C@H]1[C@H]1COC(C)(C)O1	> 100	> 100 µM	> 100		> 100 µM	> 100	> 100	> 100	> 100 µM	> 100 µM								
COc1ccc(/C=N/Nc2nnc3c(n2)c2ccccc2c2nn(-c4ccccc4Cl)nc23)cc1	> 100	> 100 µM	> 100		> 100 µM	> 100	> 100	> 100	> 100 µM	> 100 µM								
CC[C@@]12CCC(=S)N(CCSc3ccccc3)[C@@H]1c1c(n(S(=O)(=O)c3ccc(OC)cc3)c3ccccc13)CC2	> 100		> 100		> 100 µM	> 100	> 100	> 100	> 100 µM	> 100 µM								
COC(=O)c1ccccc1C1CN=NC12Cc1c(C)ccc(C)c1C2=O (stereo not given)	> 100	> 100 µM	> 100		> 100 µM	> 100	> 100	> 100	> 100 µM	> 100 µM								
CCC1CN2CCc3c([nH]c4ccccc34)[C@@](C(=O)OC)(c3cc4c(cc3OC)N(C)C3C(O)(C(=O)OC)C(C(=O)OC)C5(CC)C=CCN6CCC43C65)C[C@@H](C2)[C@@H]1C(C)(C)C (stereo not given in full)	> 10	> 10 µM	8.19		> 2.85 µM	1.25	> 2.53	> 10	1.12 µM	9.32 µM								
COc1ccc(/C(CC2OC(=O)c3ccccc32)=N\NC(N)=O)cc1 (stereo not given)	> 100	> 100 µM	> 100		> 100 µM	> 100	> 100	> 100	> 100 µM	> 100 µM								
Cc1cc(C)nc(NS(=O)(=O)c2ccc(Nc3c4ccccc4nc4ccc(C(=O)Nc5ccc(S(=O)(=O)N=C(N)N)cc5)cc34)cc2)n1	> 100	> 100 µM	> 100		> 100 µM	> 100	> 100	> 100	> 100 µM	> 100 µM								
CCN(CC)CCNc1ccc([N+](=O)[O-])c2sc3cc(Cl)ccc3c(=O)c12	> 100		30.3		32.3 µM	> 100	> 100	> 100	25.6 µM	25.1 µM	5.31 µM	4.62 µM	2.77 µM	2.97 µM	2.89	7.68	2.15	3.59
COc1ccc2c(c1)CC[C@@H]1C2CC[C@]2(C)C(=C=CP(=O)(O)O)CCC12 (stereo not given in full)	> 100	> 100 µM	> 100		> 100 µM	> 100	> 100	> 100	> 100 µM	> 100 µM								
